Experimental data taken from US11963936B2, “Method of manufacturing stable emulsions and compositions containing the same” (UNIVERSITY OF FLORIDA RESEARCH FOUNDATION, INC., priority 2013, dated 2024).

What was measured:
[1] = Oil-water partitioning of propofol in equilibrated bulk excipient oil/water mixtures; assay type: physicochemical; conditions: for Cfree: propofol in aqueous phase, 1 wt % drug
Experimental: Oil-water partition coefficients were calculated by equilibrating a mixture of propofol, water, and oil with mass fractions fdrug, faq, and foil, respectively. The drug loading was kept constant at 1 wt %, while oil loadings were chosen to be 5 or 15 wt %. Additional experiments were performed at 10 wt % excipient oil loading for ethyl butyrate and soybean oil because of the major focus on these oils in this work. The water phase was separated and assayed for propofol concentration (cf), and the partition coefficient was obtained from a mass balance, i.e., Mdrug=Vaqcf+KVoilcf (2) where K is the oil-water partition coefficient, Mdrug, Vaq and Voil are the […] and volumes of water and oil, respectively in the system. The mass balance yields the following equation for K:
[formula] where ρaq and ρoil are the densities of water and oil, respectively. Table 2 lists the molecular weight and densities of various oils considered, along with measured aqueous phase drug concentrations and calculated logarithmic oil-water partition coefficients.

[2] = Creaming / visual shelf stability of emulsions (serum height); assay type: physicochemical; conditions: 10 wt % oil; for ability of the oil to yield stable emulsions: 1 wt % drug; for time to begin creaming: emulsions of 1 wt % propofol, 1 wt % Pluronic F68
Experimental: About 10 mL of each emulsion was placed in a 20 mL vial and left undisturbed on a lab bench to explore each emulsion's stability to creaming. Creaming is an instability mechanism where lower density oil droplets rise to the top of the system forming a cream layer with a more clear serum layer below. The emulsions were photographed periodically with a digital camera (Panasonic DMC FH25), and the photographs were analyzed using image processing software (ImageJ) to quantify the degree of creaming. The height of each emulsion phase was measured in number of pixels, and the percentage serum was calculated from the serum height divided by the total emulsion height. The time at which creaming was first observed was used as a measure of each emulsion's stability, and the time at which the emulsion had completely creamed was noted if applicable. A creaming time longer than two years is desired to be considered a commercially viable pharmaceutical emulsion.
Preliminary screening of emulsion stability was conducted by leaving emulsions undisturbed on a shelf and making visual observations at various times. The initial images of the two formulations for each of the five excipient oils are included in the top row of FIG. 3.
Images of the emulsions were digitally measured to determine the serum height as a function of time for all the emulsion systems (FIG. 3). A stable system should not separate into cream and serum phases, so the time at which serum is first observed is considered to be an approximate indicator of the degree of stability.

[3] = Propofol partitioning in binary mixtures of excipient oils
Experimental: Experiments were performed to measure the drug partitioning of binary mixtures of excipient oils. 1 wt % drug loading and 10 wt % total excipient oil loading were maintained as the experimental basis of all the binary systems formed to compare with Diprivan. The relative fractions of excipient oil were varied between 100 wt % ethyl butyrate and 100 wt % soybean oil. […] These experiments were repeated by replacing soybean oil with olive oil.

[4] = cited from earlier work
[5] = oil-water partition coefficient of propofol, 5% excipient oil
[6] = oil-water partition coefficient of propofol, 15% excipient oil

Structure (SMILES) | log(K) ([1]; oil-water partition coefficient of propofol) | Log10K [1, 5] | Log10K ([1]; oil-water partition coefficient of propofol, 10% excipient oil) | Log10K [1, 6] | Cfree ([1]; 5% excipient oil) | Cfree ([1]; 10% excipient oil) | Cfree ([1]; 15% excipient oil) | ability of the oil to yield stable emulsions [2] | partition coefficient of propofol compared to soybean oil [3] | time to begin creaming [2] | pKa [4]
CCCC(=O)OCC [Ethyl butyrate (EB), Ethyl butyrate] | 4.3 | 4.33 | 4.32 | 4.35 | 6.93 mg/L | 4.60 ± 1.83 mg/L | 2.48 mg/L | did not yield stable emulsions | about 4 fold |  | 
CCCCCCCCCCCCCC(=O)OC(C)C [Isopropyl myristate (IM), Isopropyl myristate] |  | 3.92 |  | 4.08 | 16.9 mg/L |  | 4.39 mg/L | did not yield stable emulsions |  | several days or weeks | 
CCCCCCCCCCCCCCCC(=O)OC(C)C [Isopropyl palmitate (IP), Isopropyl palmitate] |  | 3.71 |  | 4.01 | 28.1 mg/L |  | 5.17 mg/L | did not yield stable emulsions |  | several days or weeks | 
CCCCCCCC(=O)O [Octanoic acid (OA), Octanoic acid] |  | 3.65 |  | 3.76 | 33.5 mg/L |  | 10.0 mg/L | did not yield stable emulsions |  |  | 
CCCCCCCCCCCCCCCCCC(=O)O [stearic acid] |  |  |  |  |  |  |  |  |  |  | about 4.9
